Key:
[1] = Solubility of oxime ester compound in solvent; type: physicochemical; settings: solvent PGM-Ac: Propylene glycol-1-monomethyl ether-2-acetate
Protocol: When used as a photopolymerization initiator, they dissolve in propylene glycol-1-monomethyl ether-2-acetate or cyclohexanone as a solvent to a concentration of 1% by mass or higher, to satisfy the requirement as a photopolymerization initiator. The solubility measurement is preferably made at 20° to 30° C.

[2] = Solubility of oxime ester compound in solvent; type: physicochemical; settings: solvent CHN: cyclohexanone (footnote)

| Compound | Solubility PGM-Ac [1] | Solubility CHN [2] |
| --- | --- | --- |
| CCCCC(CC)Cn1c2ccc(/C(=N/OC(C)=O)c3ccc(OC(C)COC)cc3)cc2c2cc([N+](=O)[O-])ccc21 (stereo not shown) [Compound No. 54] | 20% | 14% |
| C=CC(=O)OCCn1c2ccc(/C(CCCCCCCCCCC)=N/OC(C)=O)cc2c2cc([N+](=O)[O-])ccc21 [compound 20] | 0.16% | 3.7% |
| CCOCCn1c2ccc(/C(C)=N/OC(C)=O)cc2c2cc([N+](=O)[O-])ccc21 [compound 7] | 0.38% | 2.4% |
| CCCCC(CC)Cn1c2ccc(/C(C)=N/OC(C)=O)cc2c2cc([N+](=O)[O-])ccc21 (stereo not shown) [Compound No. 1] | 4.1% | 18.9% |
| COCC(C)OC(=O)Cn1c2ccc(/C(C)=N/OC(C)=O)cc2c2cc([N+](=O)[O-])ccc21 (stereo not shown) [compound 10] | 0.091% | 0.54% |
| CCCCC(CC)Cn1c2ccc(/C(=N/OC(C)=O)c3ccc(C(C)(C)C)cc3)cc2c2cc([N+](=O)[O-])ccc21 (stereo not shown) [compound 53] | 5.0% | 24% |
| CCn1c2ccc(/C(C)=N/OC(C)=O)cc2c2cc([N+](=O)[O-])ccc21 [compound 3] | 0.12% | 0.80% |
| CCCCCCCCCCCCn1c2ccc(/C(C)=N/OC(C)=O)cc2c2cc([N+](=O)[O-])ccc21 [compound 45] | 0.4% | 7.2% |

The next lines start with the values.

| Solubility PGM-Ac [1] | Solubility CHN [2] | Compound |
| --- | --- | --- |
| 6.0% | 45% | CCCCCCCCCCC/C(=N\OC(C)=O)c1ccc2c(c1)c1cc([N+](=O)[O-])ccc1n2CC(CC)CCCC (stereo not shown) [compound 50] |
| 5.0% | 42% | CCCCCCC/C(=N\OC(C)=O)c1ccc2c(c1)c1cc([N+](=O)[O-])ccc1n2CC(CC)CCCC (stereo not shown) [compound 48] |
| 5.1% | 27% | CCn1c2ccc(/C(=N/OC(C)=O)c3ccc(OC(C)COC)cc3C)cc2c2cc([N+](=O)[O-])ccc21 (stereo not shown) [compound 33] |
| 1.2% | 7.6% | CCCCC(CC)Cn1c2ccc(/C(=N/OC(C)=O)c3ccc(F)cc3C)cc2c2cc([N+](=O)[O-])ccc21 (stereo not shown) [compound 58] |
| 1.4% | 9.2% | CCCCCCCCn1c2ccc(/C(C)=N/OC(C)=O)cc2c2cc([N+](=O)[O-])ccc21 [compound 2] |
| 0.3% | 5.3% | CCCCCCCCCCCCCCCCn1c2ccc(/C(C)=N/OC(C)=O)cc2c2cc([N+](=O)[O-])ccc21 [compound 47] |
| 1.2% | 3.2% | CCCCC(CC)Cn1c2ccc(/C(=N/OC(C)=O)c3ccccc3OCCOC)cc2c2cc([N+](=O)[O-])ccc21 (stereo not shown) [compound 55] |
| 1.5% | 13% | CCCCC(CC)Cn1c2ccc(/C(Cc3ccccc3)=N/OC(C)=O)cc2c2cc([N+](=O)[O-])ccc21 (stereo not shown) [compound 51] |
| 3.6% | 23% | CCCCC(CC)Cn1c2ccc(/C(=N/OC(C)=O)c3ccc(OCC)cc3OCC)cc2c2cc([N+](=O)[O-])ccc21 (stereo not shown) [compound 56] |
| 0.5% | 5.0% | CCCCCCCCCCCCCCn1c2ccc(/C(C)=N/OC(C)=O)cc2c2cc([N+](=O)[O-])ccc21 [compound 46] |
| 25% | 31% | COCC(C)OC(=O)CCCCCn1c2ccc(/C(C)=N/OC(C)=O)cc2c2cc([N+](=O)[O-])ccc21 (stereo not shown) [compound 12] |
| 2.4% | 12% | CCn1c2ccc(/C(=N/OC(C)=O)c3ccc(OC(C)C)cc3OC(C)C)cc2c2cc([N+](=O)[O-])ccc21 [compound 57] |

— US11667730B2, “Oxime ester compound and photopolymerization initiator containing the same” (ADEKA CORPORATION, priority 2006, dated 2023)
